Assays:
[1] = system: GLXMAW (Soybean, Williams); test: Preemergence herbicidal evaluation; type: in vivo, Glycine max, (L.) Merr. cv Williams; conditions: rated 4-5 weeks after treatment, rating scale 0-9
Outline: (§1)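 Visual 0-9 rating vs control (stand, vigor, malformation, size, chlorosis, overall appearance), scored 4-5 wk after spraying. Seeded soil cups were treated preemergence with compound in aqueous acetone, ~0.0156-0.500 kg/ha equivalent.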

[2] = system: CHEAL (Lambsquarters, Common); test: Preemergence herbicidal evaluation; type: in vivo, Chenopodium album; conditions: rated 4-5 weeks after treatment, rating scale 0-9
Outline: as §1

ABUTH (Velvetleaf) = test: Preemergence herbicidal evaluation; type: in vivo, Abutilon theophrasti; conditions: rated 4-5 weeks after treatment, rating scale 0-9
Outline: as §1

CASOB (Sicklepod) [3] = test: Postemergence herbicidal evaluation; type: in vivo, Cassia obtusifolia; conditions: postemergence
Outline: (§2)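 Visual 0-9 injury score (stand, vigor, malformation, size, chlorosis, appearance vs untreated) taken four to five weeks post-spray, averaged across repeat tests. Test plants about two weeks old; foliar spray of acetone/water (1:1) with 0.5% surfactant delivering ~0.0156-0.500 kg active/ha.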

CASOB (Sicklepod) [4] = test: Preemergence herbicidal evaluation; type: in vivo, Cassia obtusifolia; conditions: rated 4-5 weeks after treatment, rating scale 0-9
Outline: as §1

[5] = system: CHEAL (Lambsquarters, Common); test: Postemergence herbicidal evaluation; type: in vivo, Chenopodium album; conditions: postemergence
Outline: as §2

ORYSAT (Rice, Tebonnet) = test: Preemergence herbicidal evaluation; type: in vivo, Oryza sativa, (L.) Tebonnet; conditions: rated 4-5 weeks after treatment, rating scale 0-9
Outline: as §1

[6] = system: TRZAWR (Wheat, Winter, cv Riband); test: Postemergence herbicidal evaluation; type: in vivo, Triticum aestivum; conditions: postemergence
Outline: as §2

[7] = system: IPOHE (Morningglory, Ivyleaf); test: Preemergence herbicidal evaluation; type: in vivo, Ipomoea hederacea; conditions: rated 4-5 weeks after treatment, rating scale 0-9
Outline: as §1

AMBEL (Ragweed, Common) [8] = test: Preemergence herbicidal evaluation; type: in vivo, Ambrosia artemisifolia; conditions: rated 4-5 weeks after treatment, rating scale 0-9
Outline: as §1

MOOVA (Monochoria) = test: Preemergence weed control under flooded paddy conditions; type: in vivo, Monochoria vaginalis; conditions: rated 3-4 weeks after treatment
Outline: (§3)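 Greenhouse paddy assay. Acetone/water (50/50 v/v) solutions dosed into flood water, equivalent to about 0.0313 to 0.500 kg/ha active ingredient, over seeds planted 0.5 cm deep in silt loam. Score: 0-9 visual, based on stand, vigor, malformation, size and chlorosis, 3 to 4 weeks after treatment.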

AMBEL (Ragweed, Common) [9] = test: Postemergence herbicidal evaluation; type: in vivo, Ambrosia artemisifolia; conditions: postemergence
Outline: as §2

[10] = system: SAGPY (Arrowhead (Pygmaea)); test: Preemergence weed control under flooded paddy conditions; type: in vivo, Sagittaria pygmaea; conditions: rated 3-4 weeks after treatment
Outline: as §3

[11] = system: IPOHE (Morningglory, Ivyleaf); test: Postemergence herbicidal evaluation; type: in vivo, Ipomoea hederacea; conditions: postemergence
Outline: as §2

[12] = system: GLXMAW (Soybean, Williams); test: Postemergence herbicidal evaluation; type: in vivo, Glycine max, (L.) Merr. cv Williams; conditions: postemergence
Outline: as §2

ECHCG (Barnyardgrass) = test: Postemergence herbicidal evaluation; type: in vivo, Echinochloa crus-galli; conditions: postemergence
Outline: as §2

## CCOC(=O)CN1C(=O)C(Br)SC1=Nc1cc(-n2c(=O)cc(C(F)(F)F)n(C)c2=O)c(F)cc1Cl (centres unmarked) [Compound 153, Ethyl 5-bromo-2-[{2-chloro-5-[3,6-dihydro-3-methyl-2,6-dioxo-4-(trifluoromethyl)-1(2H)-pyrimidinyl]-4-fluorophenyl}imino}-4-oxo-3-thiazolidineacetate]
[1]; rate 0.1250 kg/ha
  Preemergence herbicidal rating GLXMAW: 0.0
[1]; rate 0.2500 kg/ha
  Preemergence herbicidal rating GLXMAW: 1.0
[2]; rate 0.1250 kg/ha
  Preemergence herbicidal rating CHEAL: 1.0
[2]; rate 0.2500 kg/ha
  Preemergence herbicidal rating CHEAL: 7.0
ABUTH (Velvetleaf); rate 0.1250 kg/ha
  Preemergence herbicidal rating ABUTH: 0.0
ABUTH (Velvetleaf); rate 0.2500 kg/ha
  Preemergence herbicidal rating ABUTH: 2.0
CASOB (Sicklepod) [3]; rate 0.0156 kg/ha
  Herbicidal rating CASOB: 0.0
CASOB (Sicklepod) [3]; rate 0.0313 kg/ha
  Herbicidal rating CASOB: 0.0
CASOB (Sicklepod) [3]; rate 0.0625 kg/ha
  Herbicidal rating CASOB: 1.0
CASOB (Sicklepod) [4]; rate 0.1250 kg/ha
  Preemergence herbicidal rating CASOB: 0.0
CASOB (Sicklepod) [4]; rate 0.2500 kg/ha
  Preemergence herbicidal rating CASOB: 0.0
[5]; rate 0.0156 kg/ha
  Herbicidal rating CHEAL: 0.0
[5]; rate 0.0313 kg/ha
  Herbicidal rating CHEAL: 1.0
[5]; rate 0.0625 kg/ha
  Herbicidal rating CHEAL: 1.0
ORYSAT (Rice, Tebonnet); rate 0.1250 kg/ha
  Preemergence herbicidal rating ORYSAT: 0.0
ORYSAT (Rice, Tebonnet); rate 0.2500 kg/ha
  Preemergence herbicidal rating ORYSAT: 0.0
[6]; rate 0.0156 kg/ha
  Herbicidal rating TRZAWR: 2.0
[6]; rate 0.0313 kg/ha
  Herbicidal rating TRZAWR: 2.0
[6]; rate 0.0625 kg/ha
  Herbicidal rating TRZAWR: 3.0
[7]; rate 0.1250 kg/ha
  Preemergence herbicidal rating IPOHE: 1.0
[7]; rate 0.2500 kg/ha
  Preemergence herbicidal rating IPOHE: 0.0
AMBEL (Ragweed, Common) [8]; rate 0.1250 kg/ha
  Preemergence herbicidal rating AMBEL: 0.0
AMBEL (Ragweed, Common) [8]; rate 0.2500 kg/ha
  Preemergence herbicidal rating AMBEL: 1.0
MOOVA (Monochoria); 0.0625 kg/ha
  herbicidal effect rating, MOOVA: 3.0
MOOVA (Monochoria); 0.1250 kg/ha
  herbicidal effect rating, MOOVA: 4.0
MOOVA (Monochoria); 0.2500 kg/ha
  herbicidal effect rating, MOOVA: 5.0
AMBEL (Ragweed, Common) [9]; rate 0.0156 kg/ha
  Herbicidal rating AMBEL: 0.0
AMBEL (Ragweed, Common) [9]; rate 0.0313 kg/ha
  Herbicidal rating AMBEL: 1.0
AMBEL (Ragweed, Common) [9]; rate 0.0625 kg/ha
  Herbicidal rating AMBEL: 1.0
[10]; 0.0625 kg/ha
  herbicidal effect rating, SAGPY: 0.0
[10]; 0.1250 kg/ha
  herbicidal effect rating, SAGPY: 0.0
[10]; 0.2500 kg/ha
  herbicidal effect rating, SAGPY: 0.0
[11]; rate 0.0156 kg/ha
  Herbicidal rating IPOHE: 4.0
[11]; rate 0.0313 kg/ha
  Herbicidal rating IPOHE: 6.0
[11]; rate 0.0625 kg/ha
  Herbicidal rating IPOHE: 9.0
[12]; rate 0.0156 kg/ha
  Herbicidal rating GLXMAW: 3.5
[12]; rate 0.0313 kg/ha
  Herbicidal rating GLXMAW: 4.0
[12]; rate 0.0625 kg/ha
  Herbicidal rating GLXMAW: 4.0
ECHCG (Barnyardgrass); rate 0.0156 kg/ha
  Herbicidal rating ECHCG: 0.0
ECHCG (Barnyardgrass); rate 0.0313 kg/ha
  Herbicidal rating ECHCG: 0.0
ECHCG (Barnyardgrass); rate 0.0625 kg/ha
  Herbicidal rating ECHCG: 1.0

## C=C1SC(=Nc2cc(-n3c(=O)cc(C(F)(F)F)n(C)c3=O)c(F)cc2Cl)N(CC(=O)OCC)C1=O [Compound 154]
[1]; rate 0.0156 kg/ha
  Preemergence herbicidal rating GLXMAW: 0.0
[1]; rate 0.0313 kg/ha
  Preemergence herbicidal rating GLXMAW: 2.0
[1]; rate 0.0625 kg/ha
  Preemergence herbicidal rating GLXMAW: 5.0
[1]; rate 0.2500 kg/ha
  Preemergence herbicidal rating GLXMAW: 8.0
[2]; rate 0.0156 kg/ha
  Preemergence herbicidal rating CHEAL: 9.0
[2]; rate 0.0313 kg/ha
  Preemergence herbicidal rating CHEAL: 9.0
[2]; rate 0.0625 kg/ha
  Preemergence herbicidal rating CHEAL: 9.0
[2]; rate 0.1250 kg/ha
  Preemergence herbicidal rating CHEAL: 9.0
[2]; rate 0.2500 kg/ha
  Preemergence herbicidal rating CHEAL: 9.0
ABUTH (Velvetleaf); rate 0.0156 kg/ha
  Preemergence herbicidal rating ABUTH: 9.0
ABUTH (Velvetleaf); rate 0.0313 kg/ha
  Preemergence herbicidal rating ABUTH: 9.0
ABUTH (Velvetleaf); rate 0.0625 kg/ha
  Preemergence herbicidal rating ABUTH: 9.0
ABUTH (Velvetleaf); rate 0.1250 kg/ha
  Preemergence herbicidal rating ABUTH: 9.0
ABUTH (Velvetleaf); rate 0.2500 kg/ha
  Preemergence herbicidal rating ABUTH: 9.0
CASOB (Sicklepod) [3]; rate 0.0156 kg/ha
  Herbicidal rating CASOB: 0.0
CASOB (Sicklepod) [3]; rate 0.0313 kg/ha
  Herbicidal rating CASOB: 0.0
CASOB (Sicklepod) [3]; rate 0.0625 kg/ha
  Herbicidal rating CASOB: 1.0
CASOB (Sicklepod) [4]; rate 0.0156 kg/ha
  Preemergence herbicidal rating CASOB: 0.0
CASOB (Sicklepod) [4]; rate 0.0313 kg/ha
  Preemergence herbicidal rating CASOB: 0.0
CASOB (Sicklepod) [4]; rate 0.0625 kg/ha
  Preemergence herbicidal rating CASOB: 9.0
CASOB (Sicklepod) [4]; rate 0.1250 kg/ha
  Preemergence herbicidal rating CASOB: 9.0
CASOB (Sicklepod) [4]; rate 0.2500 kg/ha
  Preemergence herbicidal rating CASOB: 9.0
[5]; rate 0.0156 kg/ha
  Herbicidal rating CHEAL: 9.0
[5]; rate 0.0313 kg/ha
  Herbicidal rating CHEAL: 9.0
[5]; rate 0.0625 kg/ha
  Herbicidal rating CHEAL: 9.0
ORYSAT (Rice, Tebonnet); rate 0.0156 kg/ha
  Preemergence herbicidal rating ORYSAT: 3.0
ORYSAT (Rice, Tebonnet); rate 0.0313 kg/ha
  Preemergence herbicidal rating ORYSAT: 4.0
ORYSAT (Rice, Tebonnet); rate 0.0625 kg/ha
  Preemergence herbicidal rating ORYSAT: 8.0
ORYSAT (Rice, Tebonnet); rate 0.1250 kg/ha
  Preemergence herbicidal rating ORYSAT: 9.0
ORYSAT (Rice, Tebonnet); rate 0.2500 kg/ha
  Preemergence herbicidal rating ORYSAT: 9.0
[6]; rate 0.0156 kg/ha
  Herbicidal rating TRZAWR: 3.5
[6]; rate 0.0313 kg/ha
  Herbicidal rating TRZAWR: 3.5
[6]; rate 0.0625 kg/ha
  Herbicidal rating TRZAWR: 4.0
[7]; rate 0.0156 kg/ha
  Preemergence herbicidal rating IPOHE: 0.0
[7]; rate 0.0313 kg/ha
  Preemergence herbicidal rating IPOHE: 9.0
[7]; rate 0.0625 kg/ha
  Preemergence herbicidal rating IPOHE: 9.0
[7]; rate 0.1250 kg/ha
  Preemergence herbicidal rating IPOHE: 9.0
[7]; rate 0.2500 kg/ha
  Preemergence herbicidal rating IPOHE: 9.0
AMBEL (Ragweed, Common) [8]; rate 0.0156 kg/ha
  Preemergence herbicidal rating AMBEL: 3.0
AMBEL (Ragweed, Common) [8]; rate 0.0313 kg/ha
  Preemergence herbicidal rating AMBEL: 5.0
AMBEL (Ragweed, Common) [8]; rate 0.0625 kg/ha
  Preemergence herbicidal rating AMBEL: 9.0
AMBEL (Ragweed, Common) [8]; rate 0.1250 kg/ha
  Preemergence herbicidal rating AMBEL: 9.0
AMBEL (Ragweed, Common) [8]; rate 0.2500 kg/ha
  Preemergence herbicidal rating AMBEL: 9.0
MOOVA (Monochoria); 0.0313 kg/ha
  herbicidal effect rating, MOOVA: 6.0
MOOVA (Monochoria); 0.0625 kg/ha
  herbicidal effect rating, MOOVA: 7.0
MOOVA (Monochoria); 0.1250 kg/ha
  herbicidal effect rating, MOOVA: 8.0
MOOVA (Monochoria); 0.2500 kg/ha
  herbicidal effect rating, MOOVA: 9.0
AMBEL (Ragweed, Common) [9]; rate 0.0156 kg/ha
  Herbicidal rating AMBEL: 3.0
AMBEL (Ragweed, Common) [9]; rate 0.0313 kg/ha
  Herbicidal rating AMBEL: 9.0
AMBEL (Ragweed, Common) [9]; rate 0.0625 kg/ha
  Herbicidal rating AMBEL: 9.0
[10]; 0.0313 kg/ha
  herbicidal effect rating, SAGPY: 2.0
[10]; 0.0625 kg/ha
  herbicidal effect rating, SAGPY: 4.0
[10]; 0.1250 kg/ha
  herbicidal effect rating, SAGPY: 5.0
[10]; 0.2500 kg/ha
  herbicidal effect rating, SAGPY: 6.0
[11]; rate 0.0156 kg/ha
  Herbicidal rating IPOHE: 9.0
[11]; rate 0.0313 kg/ha
  Herbicidal rating IPOHE: 9.0
[11]; rate 0.0625 kg/ha
  Herbicidal rating IPOHE: 9.0
[12]; rate 0.0156 kg/ha
  Herbicidal rating GLXMAW: 5.5
[12]; rate 0.0313 kg/ha
  Herbicidal rating GLXMAW: 6.0
[12]; rate 0.0625 kg/ha
  Herbicidal rating GLXMAW: 7.5
ECHCG (Barnyardgrass); rate 0.0156 kg/ha
  Herbicidal rating ECHCG: 0.0
ECHCG (Barnyardgrass); rate 0.0313 kg/ha
  Herbicidal rating ECHCG: 0.0
ECHCG (Barnyardgrass); rate 0.0625 kg/ha
  Herbicidal rating ECHCG: 0.0

Source: patent publication US20020137929A1, “1 - (3-heterocyclylphenyl) isothiourea, -isourea, -guanidine and -amidine herbicidal agents” (Intellectual Property Department, BASF Aktiengesellschaft, priority 1998, published 2002)
